Measurements as given in PubChem BioAssay AID2060513 (Molecular Pharmacology Branch, DTP, NCI, 2025).

System: 299254-011-R-J1-PDC complex spheroids viability
Test: Anticancer human tumor 299254-011-R-J1-PDC patient-derived melanoma cell line growth inhibition [GQUAD]
Conditions: for IC50: curve of first compound; for viability, T/C: stronger effect = lower value
In short: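 Viability of tumor cells grown as complex spheroids with endothelial and stromal cells, exposed to drug combinations. Top concentration at or near clinical Cmax (else 10 microM), diluted in half-log increments.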

[1] = second compound 0.0316 µM, first compound 0.0316 µM
[2] = second compound 0.0316 µM, first compound 0.1 µM
[3] = second compound 0.0316 µM, first compound 0.316 µM
[4] = second compound 0.0316 µM, first compound 1 µM
[5] = second compound 0.0316 µM, first compound 3.16 µM
[6] = second compound 0.0316 µM, first compound 10 µM
[7] = second compound 0.1 µM, first compound 0.0316 µM
[8] = second compound 0.1 µM, first compound 0.1 µM
[9] = second compound 0.1 µM, first compound 0.316 µM
[10] = second compound 0.1 µM, first compound 1 µM
[11] = second compound 0.1 µM, first compound 3.16 µM
[12] = second compound 0.1 µM, first compound 10 µM
[13] = second compound 0.316 µM, first compound 0.0316 µM
[14] = second compound 0.316 µM, first compound 0.1 µM
[15] = second compound 0.316 µM, first compound 0.316 µM
[16] = second compound 0.316 µM, first compound 1 µM
[17] = second compound 0.316 µM, first compound 3.16 µM
[18] = second compound 0.316 µM, first compound 10 µM
[19] = second compound 1 µM, first compound 0.0316 µM
[20] = second compound 1 µM, first compound 0.1 µM
[21] = second compound 1 µM, first compound 0.316 µM
[22] = second compound 1 µM, first compound 1 µM
[23] = second compound 1 µM, first compound 3.16 µM
[24] = second compound 1 µM, first compound 10 µM
[25] = second compound 3.16 µM, first compound 0.0316 µM
[26] = second compound 3.16 µM, first compound 0.1 µM
[27] = second compound 3.16 µM, first compound 0.316 µM
[28] = second compound 3.16 µM, first compound 1 µM
[29] = second compound 3.16 µM, first compound 3.16 µM
[30] = second compound 3.16 µM, first compound 10 µM
[31] = second compound 10 µM, first compound 0.0316 µM
[32] = second compound 10 µM, first compound 0.1 µM
[33] = second compound 10 µM, first compound 0.316 µM
[34] = second compound 10 µM, first compound 1 µM
[35] = second compound 10 µM, first compound 3.16 µM
[36] = second compound 10 µM, first compound 10 µM
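Also: spheroids exposed to the agents for seven days before readout.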
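For viability, T/C in this document: percent viability relative to DMSO vehicle control wells = 100%.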

SMILES: Nc1ccn(C2OC(CO)C(O)C2(F)F)c(=O)n1 (centres undefined) + Cc1[nH]c2ccc(F)cc2c1-c1nc2c3cccnc3c3ncccc3c2[nH]1
- IC50 (second compound 0.0316 µM): > 10 µM
- IC50 (second compound 0.1 µM): 6.46 µM
- IC50 (second compound 0.316 µM): > 10 µM
- IC50 (second compound 1 µM): > 10 µM
- IC50 (second compound 3.16 µM): > 10 µM
- IC50 (second compound 10 µM): > 10 µM
- viability, T/C [1]: 112%
- viability, T/C [2]: 78.3%
- viability, T/C [3]: 77.8%
- viability, T/C [4]: 74.3%
- viability, T/C [5]: 68.1%
- viability, T/C [6]: 54.6%
- viability, T/C [7]: 128%
- viability, T/C [8]: 94.5%
- viability, T/C [9]: 63.7%
- viability, T/C [10]: 64.5%
- viability, T/C [11]: 56.5%
- viability, T/C [12]: 59.6%
- viability, T/C [13]: 116%
- viability, T/C [14]: 99.5%
- viability, T/C [15]: 59.8%
- viability, T/C [16]: 70.5%
- viability, T/C [17]: 47.8%
- viability, T/C [18]: 66.9%
- viability, T/C [19]: 117%
- viability, T/C [20]: 112%
- viability, T/C [21]: 72.4%
- viability, T/C [22]: 49%
- viability, T/C [23]: 60.6%
- viability, T/C [24]: 74%
- viability, T/C [25]: 96.4%
- viability, T/C [26]: 97%
- viability, T/C [27]: 70.8%
- viability, T/C [28]: 58.1%
- viability, T/C [29]: 55.4%
- viability, T/C [30]: 52.2%
- viability, T/C [31]: 102%
- viability, T/C [32]: 103%
- viability, T/C [33]: 62.9%
- viability, T/C [34]: 45.6%
- viability, T/C [35]: 59%
- viability, T/C [36]: 49%

SMILES: CC(C)(O)C1CCC(Nc2ccc3ncc(-c4cccc(C(F)(F)F)c4)n3n2)CC1 (centres undefined) + Cc1[nH]c2ccc(F)cc2c1-c1nc2c3cccnc3c3ncccc3c2[nH]1
- IC50 (second compound 0.0316 µM): > 10 µM
- IC50 (second compound 0.1 µM): > 10 µM
- IC50 (second compound 0.316 µM): > 10 µM
- IC50 (second compound 1 µM): > 10 µM
- IC50 (second compound 3.16 µM): > 10 µM
- IC50 (second compound 10 µM): 2.55 µM
- viability, T/C [1]: 112%
- viability, T/C [2]: 109%
- viability, T/C [3]: 124%
- viability, T/C [4]: 97.2%
- viability, T/C [5]: 70.1%
- viability, T/C [6]: 111%
- viability, T/C [7]: 115%
- viability, T/C [8]: 98.2%
- viability, T/C [9]: 93.5%
- viability, T/C [10]: 103%
- viability, T/C [11]: 73.4%
- viability, T/C [12]: 111%
- viability, T/C [13]: 108%
- viability, T/C [14]: 117%
- viability, T/C [15]: 115%
- viability, T/C [16]: 109%
- viability, T/C [17]: 82.7%
- viability, T/C [18]: 99.4%
- viability, T/C [19]: 85.2%
- viability, T/C [20]: 109%
- viability, T/C [21]: 110%
- viability, T/C [22]: 104%
- viability, T/C [23]: 68.2%
- viability, T/C [24]: 105%
- viability, T/C [25]: 93%
- viability, T/C [26]: 102%
- viability, T/C [27]: 97%
- viability, T/C [28]: 88%
- viability, T/C [29]: 51%
- viability, T/C [30]: 65.3%
- viability, T/C [31]: 105%
- viability, T/C [32]: 95.9%
- viability, T/C [33]: 103%
- viability, T/C [34]: 88%
- viability, T/C [35]: 35.1%
- viability, T/C [36]: 47.6%
